# Reference: patent US20250312258A1, “2,3-PYRROLIDINEDIONE CONJUGATES AND METHODS OF USING THEREOF” (North Carolina State University, priority 2022, published 2025)
# Where two headings read alike, the source gives them in different places.
# Experiments:
# MSSA = test: MIC against MSSA strain panel; format: cell-based; settings: Staphylococcus aureus, the 4th table, read-out: MIC
# Group A Strep = test: MIC against Group A Strep strain panel; format: cell-based; settings: read-out: MIC
# S. aureus 25923 = test: Broth microdilution MIC, S. aureus 25923; format: cell-based, Staphylococcus aureus; settings: Staphylococcus aureus, 25923; read-out: MIC (S. aureus 25923)
# vanC-1 VRE 49608 = test: MIC against vanC-1 VRE 49608; format: cell-based, Enterococcus spp.; settings: Enterococcus
# S. pneumoniae = test: MIC against S. pneumoniae strain panel; format: cell-based; settings: Streptococcus pneumoniae, read-out: MIC
# ATCC 29212 E. faecalis = test: MIC against ATCC 29212 E. faecalis; format: cell-based; settings: Enterococcus faecalis, ATCC29212, ATCC 29212 E. faecalis, read-out: MIC
# VRSA [1] = test: MIC against VRSA (Table 2); format: cell-based; settings: Staphylococcus aureus, read-out: MIC (VRSA)
# S. aureus 29213 = test: Broth microdilution MIC, S. aureus 29213; format: cell-based, Staphylococcus aureus; settings: Staphylococcus aureus
# E. coli = test: MIC against E. coli strains; format: cell-based; settings: the 4th table
# VRSA [2] = test: MIC against VRSA strain panel (VRS/NRS strains); format: cell-based; settings: Staphylococcus aureus, read-out: MIC
smiles,measurement,setting,value
CCC1C(c2ccc(C(F)(F)F)cc2)=C(O)C(=O)N1C1CCC(NC)CC1 (stereo not shown) [Compound 4],MIC,MSSA; VGP16-94 MSSA,1 µg/mL
same,MIC,MSSA; VGP16-95 MSSA,2 µg/mL
same,MIC,MSSA; VGP16-96 MSSA,1 µg/mL
same,MIC,MSSA; VGP16-97 MSSA,1 µg/mL
same,MIC,MSSA; VGP16-98 MSSA,1 µg/mL
same,MIC,MSSA; VGP16-99 MSSA,1 µg/mL
same,MIC,MSSA; VGP16-100 MSSA,1 µg/mL
same,MIC,MSSA; VGP16-101 MSSA,1 µg/mL
same,MIC,MSSA; VGP16-116 MSSA,1 µg/mL
same,MIC,MSSA; VGP16-117 MSSA,1 µg/mL
same,MIC,"Group A Strep; 2007-11 Group A Strep, the 8th table",0.5 µg/mL
same,MIC,"Group A Strep; 2007-28 Group A Strep, the 8th table",0.5 µg/mL
same,MIC,"Group A Strep; 2007-49 Group A Strep, the 8th table",0.5 µg/mL
same,MIC,"Group A Strep; 2007-73 Group A Strep, the 8th table",0.5 µg/mL
same,MIC,"Group A Strep; 2007-107 Group A Strep, the 8th table",0.5 µg/mL
same,MIC,"Group A Strep; 2007-1101 Group A Strep, the 8th table",0.5 µg/mL
same,MIC,"Group A Strep; 2008-06 Group A Strep, the 8th table",0.5 µg/mL
same,MIC,"Group A Strep; 2008-45 Group A Strep, the 8th table",0.5 µg/mL
same,MIC,"Group A Strep; 2008-818 Group A Strep, CA-MHB w/5% LHB, the 4th table",0.25 µg/mL
same,MIC,"Group A Strep; 2008-1565 Group A Strep, the 8th table",0.5 µg/mL
same,MIC,"Group A Strep; 2008-1692 Group A Strep, the 8th table",0.5 µg/mL
same,MIC,"Group A Strep; 2008-1732 Group A Strep, CA-MHB w/5% LHB, the 4th table",0.25 µg/mL
same,MIC,"Group A Strep; 2009-8 Group A Strep, the 8th table",0.5 µg/mL
same,MIC,"Group A Strep; 2009-37 Group A Strep, CA-MHB w/5% LHB, the 4th table",0.5 µg/mL
same,MIC,"Group A Strep; 2009-106 Group A Strep, the 8th table",0.5 µg/mL
same,MIC,"Group A Strep; 2009-109 Group A Strep, the 8th table",0.5 µg/mL
same,MIC,"Group A Strep; 2009-114 Group A Strep, the 8th table",0.5 µg/mL
same,MIC,"Group A Strep; 2009-136 Group A Strep, the 8th table",0.5 µg/mL
same,MIC,S. aureus 25923,0.5 µg/mL
same,MIC,"vanC-1 VRE 49608; VRE, the 2nd table, read-out: MIC (vanC-1 VRE 49608)",0.5 µg/mL
same,MIC,"vanC-1 VRE 49608; vanC-1 VRE 49608, the 3rd table, read-out: MIC",0.5 µg/mL
same,MIC,"S. pneumoniae; ATCC49619, ATCC 49619 S. pneumoniae, CA-MHB w/5% LHB, the 4th table",0.25 µg/mL
same,MIC,"S. pneumoniae; ATCC49619, ATCC 49619 S. pneumoniae, the 7th table",0.5 µg/mL
same,MIC,"S. pneumoniae; CO314937 S. pneumoniae, CA-MHB w/5% LHB, the 4th table",0.5 µg/mL
same,MIC,"S. pneumoniae; CT3-5008 S. pneumoniae, the 7th table",0.5 µg/mL
same,MIC,"S. pneumoniae; CT3-5803 S. pneumoniae, the 7th table",0.5 µg/mL
same,MIC,"S. pneumoniae; CT3-8501 S. pneumoniae, the 7th table",0.5 µg/mL
same,MIC,"S. pneumoniae; CT4-3048 S. pneumoniae, the 7th table",0.5 µg/mL
same,MIC,"S. pneumoniae; CT4-9046 S. pneumoniae, the 7th table",0.25 µg/mL
same,MIC,"S. pneumoniae; CT4-9693 S. pneumoniae, the 7th table",0.5 µg/mL
same,MIC,"S. pneumoniae; CT5-6541 S. pneumoniae, the 7th table",0.5 µg/mL
same,MIC,"S. pneumoniae; CT5-8032 S. pneumoniae, the 7th table",0.5 µg/mL
same,MIC,"S. pneumoniae; CT5-9124 S. pneumoniae, the 7th table",0.25 µg/mL
same,MIC,"S. pneumoniae; CT6-0670 S. pneumoniae, the 7th table",0.5 µg/mL
same,MIC,"S. pneumoniae; CT6-7691 S. pneumoniae, the 7th table",0.5 µg/mL
same,MIC,"S. pneumoniae; CT0200-2241 S. pneumoniae, the 7th table",0.5 µg/mL
same,MIC,"S. pneumoniae; CT0200-2730 S. pneumoniae, the 7th table",0.5 µg/mL
same,MIC,"S. pneumoniae; MD77773 S. pneumoniae, CA-MHB w/5% LHB, the 4th table",0.5 µg/mL
same,MIC,ATCC 29212 E. faecalis; the 4th table,2 µg/mL
same,MIC,ATCC 29212 E. faecalis; the 6th table,2 µg/mL
same,MIC,VRSA [1],1 µg/mL
same,MIC,"S. aureus 29213; 29213, read-out: MIC (S. aureus 29213)",0.5 to 1 µg/mL
same,MIC,"S. aureus 29213; ATCC 29213 / MRSA, ATCC 29213 MRSA, the 4th table, read-out: MIC",2 µg/mL
same,MIC,"S. aureus 29213; ATCC 29213 / MRSA, ATCC 29213 MRSA, the 5th table, read-out: MIC",1 µg/mL
same,MIC,E. coli; AR-137 E. coli,>64 µg/mL
same,MIC,"E. coli; Escherichia coli, ATCC25922, ATCC 25922 E. coli, read-out: MIC",> 64 µg/mL
same,MIC,"E. coli; Escherichia coli, AR-451 E. coli, read-out: MIC",> 64 µg/mL
same,MIC,"VRSA [2]; NRS 1 / VRSA, NRS-1 (VRSA), the 3rd table",4 µg/mL
same,MIC,"VRSA [2]; NRS 1 / VRSA, NRS-1 VRSA, the 5th table",4 µg/mL
same,MIC,"VRSA [2]; NRS 2 / VRSA, NRS-2 VRSA, the 5th table",2 µg/mL
same,MIC,"VRSA [2]; VRSA, VRS-1 (VRSA), the 3rd table",16 µg/mL
same,MIC,"VRSA [2]; VRSA, VRS-1 VRSA, the 5th table",16 µg/mL
same,MIC,"VRSA [2]; VRSA, VRS-2 (VRSA), the 3rd table",4 µg/mL
same,MIC,"VRSA [2]; VRSA, VRS-2 VRSA, the 5th table",4 µg/mL
